This is an account of results in patent US10023551B2, “Glutathione-cleavable prodrug and methods of use thereof” (GEORGETOWN UNIVERSITY, priority 2015, dated 2018).

Data set [1] concerns MCF10A. The data set can be described thus: Inhibition of cell proliferation in normal cells (MCF10A). The data set is classed as cell-based. The procedure:
(§1) To evaluate the toxicity of YK-5-252 in cells, the inhibition of cell proliferation was measured in normal cells (MCF10A) and TNBC cells (MDA-MB-231). […] This lack of selectivity can be attributed to the toxicity of YK-5-252.

Data set [2] deals with MDA-MB-231. Kind of data set: Inhibition of cell proliferation in TNBC cells (MDA-MB-231). The data set is classed as cell-based. The procedure: as §1
For another data set, the system named is tubulin polymerization. Kind of data set: Immunofluorescence staining of tubulin in TNBC cells. The data set is classed as cell-based. Particulars: 50 nM, MDA-MB-231. As to the method:
To determine the biological effect of YK-5-252, its mechanism of action was determined through immunofluorescence staining.

Data set [3] in a line: Fluorescence properties and activation via GSH cleavage. The data set is classed as physicochemical. As to conditions: for NIR fluorescence emission: without GSH, excitation of 492 nm. The procedure:
FIG. 11 contains emission spectra of compounds described herein.
The fluorescence properties and ability to be activated via GSH cleavage of YK-5-252 were evaluated. DCM-NH2 has a NIR fluorescence emission at 650 nm with an excitation of 492 nm (FIG. 11, panel a). […] This can be due to the loss of electron donating ability of the amine group when attached to the linker. To ascertain the stability of YK-5-252 toward GSH, fluorescence was monitored in the presence of GSH.

Data set [4] concerns MDA-MB-231. Kind of data set: FACS analysis of cell population containing released DCM-NH2, TNBC cells. The class given is cell-based. Particulars: treated 48 hours. The procedure: (§2) To further investigate the in vivo activation of YK-5-252, fluorescence-activated cell sorting (FACS) was used. Cells were treated with YK-5-252 for 48 hours. After treatment, FACS analysis was conducted to determine how much of the cell population has DCM-NH2 present. […] HPLC analysis confirmed that CA-4 release is concurrent with the release of DCM-NH2 in a traceless manner (FIG. 14, panels (a-d)). The difference in prodrug cleavage in cancer cells versus normal cells is due to the higher levels of GSH produced in cancer cells.
For orientation: Flow cytometry measures light scatter and fluorescence of single cells or particles in a stream.

Data set [5] deals with MCF10A. The data set can be described thus: FACS analysis of cell population containing released DCM-NH2, normal cells. As to conditions: treated 48 hours. The data set is classed as cell-based. As to the method:
as §2

A short description of data set [6]: HPLC analysis of cleavage by glutathione. The data set is classed as physicochemical. As to conditions: YK-5-252 200 μM; GSH 50 mM. The procedure:
FIG. 14 contains HPLC traces. Panel (a) is a trace of YK-5-252 (200 μM). Panel (b) is a trace of YK-5-252 (200 μM) and glutathione (GSH; 50 mM). Panel (c) is a trace of CA-4 (200 μM). Panel (d) is a trace of DCM (200 μM). […] After treatment with GSH (Panel (b)), the YK-5-252 peak at 10.5 minutes disappeared while two new peaks at 6.8 and 8.6 minutes appears which corresponds to the release of CA-4 and DCM-NH2, respectively (Panels (c) and (d)).
as §2

For the next data set, the system named is MDA-MB-231 versus MCF10A. Kind of data set: Live cell imaging by confocal microscopy. The class given is cell-based. Particulars: 1 micromolar, 1 hour. The procedure: FIG. 12, panel (a) contains a confocal microscopy image of MDA-MB-231 cells (triple negative breast cancer cells) treated with YK-5-252 (1 micromolar) for 1 hour. Panel (b) contains a nuclear staining image of the cells with Hoesht dye. Panel (c) contains a merged image of panels (a) and (b). Panel (d) contains a confocal microscopy image of MCF10A (normal breast cells) treated with YK-5-252 (1 micromolar) for 1 hour. Panel (e) contains a nuclear stained image of the cells with Hoescht dye. Panel (f) contains a merged image of panels (d) and (e).
To test the ability of YK-5-252 to selectively release CA-4 in cancer cells, the presence of DCM was monitored through confocal microscopy. […] Also this experiment confirms the utility of YK-5-252 to monitor drug delivery and release in vivo.

In data set [7] the test system is MCF-7 and MCF-10A cell lines. The data set can be described thus: In vitro cytotoxicity assay. The data set is classed as cell-based. Particulars: FIGS. 7 and 8. An excerpt: FIG. 7 contains plots for use in calculating the IC50 values for YK-5-252 and CA-4 in a MCF-7 cell line.
FIG. 8 contains plots for use in calculating the IC50 values for YK-5-252 and CA-4 in a MCF-10A cell line.
YK-5-252, the designed drug with linked disulfide bond described above, can be cleaved by intracellular glutathione (GSH). Cancer cells have a much higher GSH concentration than normal cells; therefore, this GSH-cleavable prodrug holds promising therapeutic efficacy. Near-infrared photons can deeply penetrate the skin and tissue with minimal damage. […] Due to its NIR fluorescent property, the compound also offers an excellent ability for tracking drug release in vivo.

Read-outs that look alike come from different tables or passages of the source.

As a reminder, the GI50 is the concentration giving 50% growth inhibition. Regarding `COc1ccc(/C=C\c2cc(OC)c(OC)c(OC)c2)cc1O` [CA-4, combretastatin A-4, reference compound], the 50% growth inhibitory concentration (GI50) in the data set with MCF10A [1] (MCF10A normal breast cells, read-out: GI50 (Table 1)) is less than 0.001 nM; in the data set with MCF10A [1] (normal cells (MCF10A), read-out: GI50), less than 0.001 nM; in the data set on MDA-MB-231 [2] (MDA-MB-231 TNBC cells, after 72 hours of treatment, read-out: GI50 (Table 1)) it was 2.81 nM; in the data set on MDA-MB-231 [2] (TNBC cells (MDA-MB-231), read-out: GI50) it was 28.1 nM. Further, the “disruption of tubulin polymerization” value in the data set with tubulin polymerization (1 hour) was “completely inhibited tubulin polymerization”.

As to `N#CC(C#N)=C1C=C(/C=C/c2ccc(N)cc2)Oc2ccccc21` [DCM-NH2, (E)-2-(2-(4-aminostyryl)-4H-chromen-4-ylidene)malononitrile], the NIR fluorescence emission in data set [3] is on record as 650 nm.

For the molecule `COc1ccc(/C=C\c2cc(OC)c(OC)c(OC)c2)cc1OC(=O)OCCSSCCOC(=O)Nc1ccc(/C=C/C2=CC(=C(C#N)C#N)c3ccccc3O2)cc1` [YK-5-252], the GI50 in the data set with MCF10A [1] (Homo sapiens, MCF-10A, MCF10A normal breast cells, read-out: GI50 (Table 1)) was 19.2 nM; in the data set with MCF10A [1] (Homo sapiens, MCF-10A, normal cells (MCF10A), read-out: GI50) it was roughly 19.2 nM; in the data set on MDA-MB-231 [2] (Homo sapiens, MDA-MB-231 TNBC cells, after 72 hours of treatment, read-out: GI50 (Table 1)), 40.3 nM; in the data set with MDA-MB-231 [2] (Homo sapiens, TNBC cells (MDA-MB-231), read-out: GI50), 40.3 nM. Besides, the “cells containing DCM-NH2” value in the data set with MDA-MB-231 [4] turned out to be 72%. In the data set with MCF10A [5], the “cells containing DCM-NH2 (the fluorophore)” value is listed as “about 5%”. Further, the figures for the “disruption of tubulin polymerization” value in the data set on tubulin polymerization (1 hour) and in the data set on tubulin polymerization (6 hours) were “did not cause disruption of tubulin polymerization” and “began to disrupt tubulin polymerization”, respectively. Also, the “fluorescence emission in the presence of GSH” value in [3] (GSH 250 mM, pH 8, DMSO/PBS 50/50) amounted to 650 nm. Besides, the NIR fluorescence emission result in data set [3] is “no NIR emission”. Besides, the “prodrug HPLC peak after treatment with GSH” value in [6] was “disappeared”. In the data set with MDA-MB-231 versus MCF10A, the “fluorescence in TNBC cells versus normal breast cells” value is reported as “higher quantities”. Moreover, the “toxicity compared with parent drug” value in data set [7] was “much less toxic than its linked parent drug”.
